Experimental data: patent US20030220517A1, “Method for producing ketocarboxylic acid derivatives” (priority 2000, published 2003)
Blank lines part the entries; values can stand above or below the compound they belong to.

Legend:
[1] = log P determination by HPLC on reversed-phase column (EEC Directive 79/831 Annex V.A8); assay type: physicochemical; conditions: reversed-phase C18 HPLC column, reversed-phase column (C 18), 43° C., acidic range pH 2.3, 0.1% aqueous phosphoric acid/acetonitrile gradient
Method: The log P values given in the use examples above are determined in accordance with EEC Directive 79/831 Annex V.A8 by HPLC (High Performance Liquid Chromatography) on a reversed-phase column (C 18). Temperature: 43° C. The determination is carried out in the acidic range at pH 2.3 using the mobile phases 0.1% aqueous phosphoric acid and acetonitrile; linear gradient from 10% acetonitrile to 90% acetonitrile. Calibration is carried out using unbranched alkan-2-ones (with 3 to 16 carbon atoms) with known logP values (determination of the logP values by the retention times using linear interpolation between two successive alkanones).

SMILES: CC(C)(C)OC(=O)N1C(=O)CCC1c1ccc(-c2ccc(OC(F)(F)F)cc2)cc1 (centres unmarked) [XI-1, tert-butyl 2-oxo-5-[4′-(trifluoromethoxy)-1,1′-biphenyl-4-yl]-1-pyrrolidinecarboxylate]
chromatographic logP [1]: 4.32

SMILES: CC(C)(C)OC(=O)NC(CCC(=O)c1c(F)cccc1F)c1ccc(-c2ccc(OC(F)(F)F)cc2)cc1 (centres unmarked) [XIII-1, tert-butyl 4-(2,6-difluorophenyl)-4-oxo-1-[4′-(trifluoromethoxy)-1,1′-biphenyl-4-yl]butylcarbamate]
chromatographic logP [1]: 5.18

SMILES: O=C(O)CCC(=O)c1ccc(-c2ccc3c(c2)OC(F)(F)C(F)(F)O3)cc1 [Example 5, 4-oxo-4-(3′,4′-tetrafluoroethylenedioxo-biphenyl-4-yl)butyric acid]
melting point: 165 to 168 °C

Second part, the compound after the results:

chromatographic logP [1]: 4.35
SMILES: C=C(c1ccccc1)N1C(=O)CCC1c1ccc(-c2ccc(OC(F)(F)F)cc2)cc1 (centres unmarked) [IX-1, 1-(1-phenylvinyl)-5-[4′-(trifluoromethoxy)-1,1′-biphenyl-4-yl]-2-pyrrolidinone]

chromatographic logP [1]: 2.95
SMILES: O=C1CCC(c2ccc(-c3ccc(OC(F)(F)F)cc3)cc2)N1 (centres unmarked) [Example X-1, 5-[4′-(trifluoromethoxy)-1,1′-biphenyl-4-yl]-2-pyrrolidinone]

chromatographic logP [1]: 4.13
SMILES: Fc1cccc(F)c1C1=N[C@@H](c2ccc(-c3ccc(OC(F)(F)F)cc3)cc2)CC1 [Example V-1, (2R)-5-(2,6-difluorophenyl)-2-[4′-(trifluoromethoxy)-1,1′-biphenyl-4-yl]-3,4-dihydro-2H-pyrrole]

chromatographic logP [1]: 3.8
SMILES: O=C1CCC(c2ccc(-c3ccc(OC(F)(F)F)cc3)cc2)N1C(CO)c1ccccc1 (centres unmarked) [VII-1, 1-[2-hydroxy-1-phenylethyl]-5-[4′-(trifluoromethoxy)-1,1′-biphenyl-4-yl]-2-pyrrolidinone]

chromatographic logP [1]: 4.78
SMILES: O=C1CCC(c2ccc(-c3ccc(OC(F)(F)F)cc3)cc2)N1C(CCl)c1ccccc1 (centres unmarked) [VIII-1, 1-[2-chloro-1-phenylethyl]-5-[4′-(trifluoromethoxy)-1,1′-biphenyl-4-yl]-2-pyrrolidinone]
